Columns and labels:
Assay type in all cases: in vivo
[1] = system: Poa annua (POAAN); assay: Biological Example 4B (not-previously-formulated compounds) post-emergence herbicidal activity on grassy weeds; conditions: 14 DAA, technical compound in IF50 + Adigor, mean of two
Description: (§1) Seeds of a variety of test species are sown in standard soil in pots. After cultivation for 14 days under controlled conditions in a glasshouse (at 22/16°C., day/night; 16 hours light; 65% humidity), the plants are sprayed with an aqueous spray solution derived from the formulation of the technical active ingredient dissolved in acetone plus IF50 containing
(§2) 10.56 wt % Emulsogen™EL (castor oil ethoxylate, CAS Registry number 61791-12-6)
(§3) 42.22 wt % N-Methyl pyrrolidone
(§4) 42.22 wt % dipropylene glycol monoethyl ether
(§5) at a 1:20 ratio of (technical active ingredient:IF50). The adjuvant Adigor™(an adjuvant containing inter alia methylated rapeseed oil, e.g. available from Syngenta) is added to form a 0.5% v/v solution. The test plants are then grown on under controlled conditions in the glasshouse (at 22/16°C., day/night; 16 hours light; 65% humidity) and are watered twice daily. After 14 days the test is evaluated (100%=total damage to plant; 0%=no damage to plant).
(§6) […] Herbicidal activity (phytotoxicity) is evaluated visually, and an assessed percentage phytotoxicity score is given for each herbicidal application on each plant species (with 100%=total damage to plant; 0%=no damage to plant). Two repetitions are made for each experiment, and the mean herbicidal activity (phytotoxicity) data is reported.
(§7) Test plants: Avena fatua (AVEFA), Lolium multiflorum (LOLMU), Setaria viridis (SETVI), Poa annua (POAAN), Alopecurus myosuroides (ALOMY). All five of these are grassy monocotyledonous weeds.

[2] = system: Avena fatua (AVEFA); assay: as above; conditions: 14 DAA, technical compound in IF50 + Adigor, mean of two
Description: as §1, §2, §3, §4, §5, §6, §7

[3] = system: Setaria viridis (SETVI); assay: as above; conditions: 14 DAA, technical compound in IF50 + Adigor, mean of two
Description: as §1, §2, §3, §4, §5, §6, §7

[4] = system: Alopecurus myosuroides (ALOMY); assay: as above; conditions: 14 DAA, technical compound in IF50 + Adigor, mean of two
Description: as §1, §2, §3, §4, §5, §6, §7

[5] = system: Lolium multiflorum (LOLMU); assay: as above; conditions: 14 DAA, technical compound in IF50 + Adigor, mean of two
Description: as §1, §2, §3, §4, §5
Post-emergence herbicidal activity (phytotoxicity) data, on certain grassy monocotyledonous weeds and cereal crops in a glasshouse, are measured 14 days after application of the herbicide (14 DAA), for (a) a […] the same time as the herbicide, and (b) for a post-emergence application rate of 30 g/ha of the test herbicide with 50 g/ha of cloquintocet-mexyl safener applied at substantially the same time as the herbicide. Herbicidal activity (phytotoxicity) is evaluated visually, and an assessed percentage phytotoxicity score is given for each herbicidal application on each plant species (with 100%=total damage to plant; 0%=no damage to plant). Two repetitions are made for each experiment, and the mean herbicidal activity (phytotoxicity) data is reported.
as §7

[6] = system: Alopecurus myosuroides (ALOMY); assay: Biological Example 1 glasshouse screen, pre-emergence herbicidal activity; conditions: 312 h, application rate 250 g/ha, evaluated after 13 days, read-out: ALOMY percentage phytotoxicity
Outline: (§8)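 Pot-grown seedlings sprayed 1 day after sowing (pre-emergence) or after 8 days' growth (post-emergence) with active ingredient in acetone/water (50:50) plus 0.5% Tween 20; glasshouse at 24/16°C day/night, 14 h light, 65% humidity. Visual % phytotoxicity (0 = no damage, 100 = total damage) scored 13 days after application.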

[7] = system: Echinochloa crus-galli (ECHCG); assay: as above; conditions: 312 h, application rate 250 g/ha, evaluated after 13 days, read-out: ECHCG percentage phytotoxicity
Outline: as §8

[8] = system: Lolium perenne, perennial ryegrass (LOLPE); assay: Biological Example 3 glasshouse screen, post-emergence herbicidal activity; conditions: 360 h, 15 DAA, no safener, read-out: LOLPE percentage phytotoxicity; for pest or weed control at 30 g/ha: application rate 30 g/ha; for pest or weed control at 60 g/ha: application rate 60 g/ha
Outline: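 Selectivity screen without safener: 12-day-old plants sprayed post-emergence with acetone/IF50-formulated compound plus 0.2% v/v X-77, kept in glasshouse, visually rated for % injury 15 days after application.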

[9] = 30 g/ha, cloquintocet-mexyl 50 g/ha
[10] = 60 g/ha, cloquintocet-mexyl 0 g/ha
[11] = 60 g/ha, cloquintocet-mexyl 50 g/ha
[12] = 15 g/ha, cloquintocet-mexyl 50 g/ha

SMILES	POAAN % phytotoxicity [1, 9] [%]	POAAN % phytotoxicity [1, 10] [%]	POAAN % phytotoxicity [1, 11] [%]	AVEFA % phytotoxicity [2, 9] [%]	AVEFA % phytotoxicity [2, 10] [%]	AVEFA % phytotoxicity [2, 11] [%]	SETVI % phytotoxicity [3, 9] [%]	SETVI % phytotoxicity [3, 10] [%]	SETVI % phytotoxicity [3, 11] [%]	ALOMY % phytotoxicity [4, 9] [%]	ALOMY % phytotoxicity [4, 10] [%]	ALOMY % phytotoxicity [4, 11] [%]	LOLMU % phytotoxicity [5, 9] [%]	LOLMU % phytotoxicity [5, 10] [%]	LOLMU % phytotoxicity [5, 11] [%]	pest or weed control at 250 g/ha [6] [%]	pest or weed control at 250 g/ha [7] [%]	pest or weed control at 30 g/ha [8] [%]	pest or weed control at 60 g/ha [8] [%]	also measured
CC#Cc1cc(C)c(C2=C(O)CC(Cc3ccc(C)cn3)C2=O)c(C)c1 (centres unmarked) [Compound A-8]	65	80	75	45	97	95	55	75	75	63	94	94	68	92	94	100	100	90		
CC#Cc1cc(C)c(C2=C(O)CC(Cc3ccc(F)cn3)C2=O)c(C)c1 (centres unmarked) [Compound A-11]	70	75	75	50	93	88	89	98	97	73	85	85	68	95	88	90	100	80	100	
CC#Cc1cc(C)c(C2=C(O)CC(Cc3ccc(C#N)cn3)C2=O)c(C)c1 (centres unmarked) [Compound A-14]	83	85	85	38	83	80	99	100	100	78	97	97	88	100	97	90	90	70	80	
CC#Cc1cc(C)c(C2C(=O)CC(Cc3ccn(C)n3)C2=O)c(C)c1 (centres unmarked) [Compound A-19]	80	92	92	90	99	99	100	100	100	100	100	100	100	100	100	100	100	80		POAAN % phytotoxicity [1, 12]: 75%; AVEFA % phytotoxicity [2, 12]: 88%; SETVI % phytotoxicity [3, 12]: 99%; ALOMY % phytotoxicity [4, 12]: 99%; LOLMU % phytotoxicity [5, 12]: 98%; pest or weed control at 15 g/ha ([8]; application rate 15 g/ha): 30%

From patent US9107415B2, “2-(substituted-phenyl)-cyclopentane-1,3-dione compounds, and derivatives thereof” (Syngenta Limited, priority 2011, dated 2015)
